One test relates to MCF-7 cells. Kind of test: Enzyme linked immunosorbent apoptosis assay (Cell Death Detection ELISA PLUS). In kind it is cell-based, human. As for the experimental part: Compound 9a was further investigated for induction of apoptosis in MCF-7 cells using Cell Death Detection ELISA^PLUS which is used for the quantitative in vitro determination of cytoplasmic histone-associated DNA fragments (mono- and oligonucleosomes) in apoptosing cells.
Cells were seeded at a density of 2 × 10^4/ well in a 96-well plate and incubated for 24 h. […] An ELISA assay was performed using Cell Death Detection ELISA PLUS kit (Roche-Applied Science, Indianapolis, IN, USA) for the quantitative in vitro determination of cytoplasmic histone-associated DNA fragments (mono- and oligonucleosomes) in apoptosing cells. Briefly, cells were lysed with 200-μL lysis buffer for 30 min at room temperature. The lysate was centrifuged at 200 g for 10 min. 150 μL of supernatant was collected, of which 20 μL was incubated with anti-histone biotin and anti-DNA peroxidase at room temperature for 2 h. After washing with incubation buffer three times, 100 μL of substrate solution (2,2′-azino-di(3-ethylbenzthiazolinsulphonic acid) was added to each well and incubated for 15–20 min at room temperature. The absorbance was measured using an ELISA reader (Spectra Max Plus) at 405 nm. The control group was cells without compounds treatment. Each assay was done in triplicate and the standard deviation was determined.

Test [1] concerns MDA-MB-231 human breast adenocarcinoma cell line. Kind of test: WST-1 cell viability assay, MDA-MB-231. In kind it is cell-based. Particulars: Homo sapiens, MDA-MB-231; WST-1, 24 h treatment, mean ± S.D of three independent experiments. The source says:
(§1) The synthesized compounds were screened for their cytotoxicity on five cancer cell lines, namely SK-OV-3, MCF-7, MDA-MB-231, HCT-116 and RKO, using a WST colorimetric assay. The assay principle is based upon the reduction of the tetrazolium salt WST-1 to formazan by cellular mitochondrial dehydrogenases present in viable cells. […] Among the latter compounds the benzohydrazide derivative 9a emerged with the lowest IC50 in this study against MCF-7 cells compared to 5-FU. […] Based on the fact that 9a had less cytotoxic effects on normal breast epithelial cells it was subjected to further studies.
(§2) The following cell lines were used for the screening stage, obtained from the American Type Culture Collection (ATCC, Manassas, VA, USA); SK-OV-3 (HTB-77), MCF-12A (ATCC CRL-10782), MDA-MB-231 (ATCC HTB-26), HCT-116 (CCL-247), RKO (CRL-2577) and sub-culturing of the above cell lines was conducted in 75 cm^2 flasks. The old culture media was removed and discarded after assessing the confluency of the cells and the cells were rinsed with 2–3 mL diluted trypsin (1×) (trypsin/EDTA solution consists of 0.025% trypsin and 0.01% EDTA in PBS), for about 5 minutes for complete detachment. The cells were observed under the inverted microscope until the cell layer is completely dispersed. 75 cm^2 flasks were prepared and 16 mL of DMEM media for SK-OV-3, MCF-7, MDA-MB-231, (DMEM 4500 mg glucose) and RPMI media for HCT-116 were added to each flask. The cells were aspirated gently and added to the flasks. DMEM 4500 mg/L high glucose with 10% FBS, 5% streptomycin and penicillin, RPMI 1640 (prepared by adding 5% heat-inactivated FCS and 2 mm glutamine) were used. DMEM was also used for MCF-12A cells with the addition of human epidermal growth factor 20 ng/mL, insulin 0.01 mg/mL and hydrocortisone 500 ng/mL.
(§3) The synthesized compounds were screened for their anti-proliferative activity using 5-FU (F6627-1G, Sigma-Aldrich, St. Louis, MO, USA) as reference compound. A concentration of 0.4% DMSO was used in all experiment after ensuring 100% viability of the cell lines with this concentration. A 25 mM stock concentration of all compounds was prepared for further studies and analysis.
(§4) Cells were trypsinized and placed in a 15 mL Falcon tube, the cells were centrifuged for 3 min at 1000 rpm. Trypsin is decanted using a sterile pipette and then the pellet is loosened by flicking the tube few times then 5–10 mL warm DMEM or RPMI were added to the Falcon tube and the pellet is resuspended. Cell count was done next by taking 10 μL of the suspension into the cell counting slide and read under 10× cells/mL. A cell stock of 50,000 cells/mL was prepared for the 96 wells. Cells (100 μL) were added to each well using a sterile pipette each time to ensure consistency. The experiment was planned ahead of time using excel sheet, 3–6 wells were reserved as blank media while 3–6 wells for vehicle (DMSO). The plate was incubated for 24 h for compound treatment step. DMEM media was used to prepare different dilutions of the compounds. The old DMEM media was removed from the wells using sterile pipette in the hood and the media was replaced with 100 μL media with each compound. The plate was incubated for 24 h. After 24 h incubation, WST-1 reagent (Sigma) was added to each well and then the plate was incubated for 1 h before measuring the absorbance using VICTOR™ Multilabel Plate Reader (Perkin Elmer, Beaconsfield, UK). The absorbance of the colored solution can be quantified by measuring at a certain wavelength (usually between 500–600 nm), in this experiment the first reading was conducted at 540 nm and the second reading at 690 nm for the reference wavelength. The percentage of cell viability was determined as the ratio of the absorbance of the sample vs the control. Three independent experiments were performed. […] 5-Florouracil (Sigma-Aldrich, F6627-1G) was used as reference standard.
On the technique in general: Tetrazolium assays rely on reduction of a dye to a coloured formazan, in cell work by metabolically active cells.

Test [2] concerns MCF-7 human breast adenocarcinoma cell line. The experiment in a line: WST-1 cell viability assay, MCF-7. As to conditions: for IC50: WST-1, 24 h treatment, mean ± S.D of three independent experiments. It counts as cell-based.
Text: as §1, §2, §3, §4

The subject of test [3] is RKO human colon carcinoma cell line. The experiment in a line: WST-1 cell viability assay, RKO. It counts as cell-based. As to conditions: Homo sapiens, Colon carcinoma cell; WST-1, 24 h treatment, mean ± S.D of three independent experiments.
Text: as §1, §2, §3, §4

What is called IC50 is the concentration that inhibits the measured activity by half. The viability is a read-out of living cells in per cent, often relative to untreated cells. As for `COc1ccc(-c2cc(-c3ccc(OC)c(OC)c3)c(C#N)c(OCC(=O)NNC(=O)c3ccccc3)n2)cc1OC` [Compound 9a, N'-[2-(3-cyano-4,6-bis(3,4-dimethoxyphenyl)pyridin-2-yloxy)acetyl]benzohydrazide], the “induction of apoptosis, concentration dependence” value in the test on MCF-7 cells (0.1 to 4 μM) was “increased in a dose dependent fashion”. Further, in the test with MCF-7 cells (exposure 3 h to 48 h), the “induction of apoptosis, exposure time with optimum value” stood at 24 h. Further, the IC50 turned out to be 22.3 ± 0.88 µM in test [1]; 2 µM in test [2] (Homo sapiens, MCF7, 24 h); 2.04 ± 0.13 µM in test [2]; 8.22 ± 0.99 µM in test [3]. In test [2] (Homo sapiens, MCF7, 2 μM, 24 h, WST-1, read-out: cell viability in MCF-7 cells), the viability at 2 µM was about 50%.

Values taken from paper PMC6274259, “New 3-Cyano-2-Substituted Pyridines Induce Apoptosis in MCF 7 Breast Cancer Cells” (Molecules, 2016).
